From publication PMC12881670, “Investigation into ligand selectivity and bias at the formyl peptide receptor family” (The Journal of Pharmacology and Experimental Therapeutics, 2025)

What was measured:
Mm_Fpr2 [1] = molecular target: T1, Mm_Fpr2 (Mus musculus, UniProt O88536); assay: BRET receptor-RLuc8 interaction with Venus-mGsi; assay type: cell-based
T1 construct: expressed in transfected cells
T1 sequence (O88536 1-351): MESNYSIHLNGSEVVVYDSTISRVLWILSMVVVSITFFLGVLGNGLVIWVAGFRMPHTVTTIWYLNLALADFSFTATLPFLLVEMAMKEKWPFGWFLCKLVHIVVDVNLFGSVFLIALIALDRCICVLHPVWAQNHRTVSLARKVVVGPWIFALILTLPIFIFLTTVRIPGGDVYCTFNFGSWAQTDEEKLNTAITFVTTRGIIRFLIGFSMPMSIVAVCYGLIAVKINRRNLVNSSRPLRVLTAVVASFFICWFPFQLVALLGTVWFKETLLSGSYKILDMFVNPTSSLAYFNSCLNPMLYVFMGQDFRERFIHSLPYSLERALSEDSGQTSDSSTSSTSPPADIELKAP
Method: (§1) BRET1 assays to measure FPR interaction with Venus-mGsi and Arrestin 3-yellow fluorescent protein (YFP) were performed as previously described.[31]^,[32] Briefly, all FPRs C-terminally fused to Renilla Luciferase (donor, RLuc8) were transiently transfected along with either Venus-mGsi or YFP-Arrestin 3 (acceptor) at a ratio of 1:4. 24 hours post transfection, cells were replated into white-walled, 96-well plates and cultured for a further 24–48 hours. On the day of experimentation, growth media was aspirated and replaced with 80 μl Hanks Buffered Saline Solution and equilibrated for 30 minutes. Coelenterazine h was added to each well to a final concentration of 5 μM for 5 minutes before the addition of each compound, and the plate was incubated for a further 10 minutes at 37 °C before being read on a ClarioStar Plus, with luminescence measured at 480/20 nm (donor) and 530/20 (acceptor). The BRET ratio (acceptor/donor) was determined, and the background (untreated) subtracted to give the N-BRET value.
(§2) All data were analyzed using GraphPad Prism using the nonlinear regression log(agonist) versus response (3 parameters) function for all assays, except binding, which was analyzed using the One site-FitlogIC50 function. Bias calculations were carried out following IUPHAR guidelines as described,[27]^,[37] and data were presented as the Δ Activity ratio (Log[EmaxB/EC50B])-(Log[EmaxA/EC50A]).

Mm_Fpr1 [2] = molecular target: T2, Mm_Fpr1 (Mus musculus, UniProt P33766); assay: BRET receptor-RLuc8 interaction with Venus-mGsi; assay type: cell-based
T2 construct: expressed in transfected cells
T2 sequence (P33766 1-364): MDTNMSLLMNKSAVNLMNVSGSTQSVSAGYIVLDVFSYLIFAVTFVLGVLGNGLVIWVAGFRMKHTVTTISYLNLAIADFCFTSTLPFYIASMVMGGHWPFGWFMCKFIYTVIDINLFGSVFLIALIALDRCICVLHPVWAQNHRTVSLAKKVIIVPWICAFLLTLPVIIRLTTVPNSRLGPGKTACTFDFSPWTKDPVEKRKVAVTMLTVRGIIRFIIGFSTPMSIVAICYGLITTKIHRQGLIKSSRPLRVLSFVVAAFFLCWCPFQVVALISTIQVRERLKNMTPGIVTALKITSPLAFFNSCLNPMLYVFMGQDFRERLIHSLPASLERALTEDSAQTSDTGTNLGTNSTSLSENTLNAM
Method: as §1, §2

Hs_FPR1 [3] = molecular target: T3, Hs_FPR1 (Homo sapiens, UniProt P21462); assay: BRET receptor-RLuc8 interaction with Venus-mGsi; assay type: cell-based
T3 construct: expressed in transfected cells
T3 sequence (P21462 1-350): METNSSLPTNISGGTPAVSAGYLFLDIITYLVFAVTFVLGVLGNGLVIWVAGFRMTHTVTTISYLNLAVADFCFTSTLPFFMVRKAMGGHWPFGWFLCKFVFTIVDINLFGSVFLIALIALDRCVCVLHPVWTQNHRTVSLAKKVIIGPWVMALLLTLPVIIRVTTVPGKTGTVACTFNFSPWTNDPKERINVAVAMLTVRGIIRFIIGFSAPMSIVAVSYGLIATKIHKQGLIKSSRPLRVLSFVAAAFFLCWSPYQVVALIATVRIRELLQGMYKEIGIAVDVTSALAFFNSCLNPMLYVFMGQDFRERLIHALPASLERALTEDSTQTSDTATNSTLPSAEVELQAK
Method: as §1, §2

Hs_FPR2 [4] = molecular target: T4, Hs_FPR2 (Homo sapiens, UniProt P25090); assay: BRET receptor-RLuc8 interaction with Venus-mGsi; assay type: cell-based
T4 construct: expressed in transfected cells
T4 sequence (P25090 1-351): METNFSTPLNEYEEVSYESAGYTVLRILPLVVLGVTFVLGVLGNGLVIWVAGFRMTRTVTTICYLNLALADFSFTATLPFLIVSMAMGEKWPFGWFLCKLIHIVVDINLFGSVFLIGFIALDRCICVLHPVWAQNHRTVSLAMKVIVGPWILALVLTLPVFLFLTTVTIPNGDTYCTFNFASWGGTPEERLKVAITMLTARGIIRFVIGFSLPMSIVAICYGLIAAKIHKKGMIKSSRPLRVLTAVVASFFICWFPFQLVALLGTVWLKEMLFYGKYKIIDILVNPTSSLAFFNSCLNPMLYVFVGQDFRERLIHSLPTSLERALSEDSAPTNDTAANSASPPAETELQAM
Method: as §1, §2

Mm_Fpr2 [5] = molecular target: T1, Mm_Fpr2; assay: ERK1/2 phosphorylation by Western blotting; assay type: cell-based
Method: (§3) ERK phosphorylation was detected by Western blotting as previously described.[30] Briefly, HEK293 cells stably expressing FLAG-tagged FPRs were plated into 12-well culture plates until 90% confluent. On the day of the experiment, culture media was replaced with serum-free Dulbecco’s modified Eagle’s medium and incubated for 2 hours before stimulation with the indicated compounds. After 7 minutes, the media was removed and stimulation terminated by the addition of 100 μl sample buffer (0.5% SDS, Tris (pH 6.8), glycerol, at >90 °C).
as §2

Mm_Fpr1 [6] = molecular target: T2, Mm_Fpr1; assay: ERK1/2 phosphorylation by Western blotting; assay type: cell-based
Method: as §3, §2

Hs_FPR1 [7] = molecular target: T3, Hs_FPR1; assay: ERK1/2 phosphorylation by Western blotting; assay type: cell-based
Method: as §3, §2

Hs_FPR2 [8] = molecular target: T4, Hs_FPR2; assay: ERK1/2 phosphorylation by Western blotting; assay type: cell-based
Method: as §3, §2

Mm_Fpr2 [9] = molecular target: T1, Mm_Fpr2; assay: BRET receptor-RLuc8 interaction with Arrestin 3-YFP; assay type: cell-based
Method: as §1, §2

Mm_Fpr1 [10] = molecular target: T2, Mm_Fpr1; assay: as above; assay type: cell-based
Method: as §1, §2

Hs_FPR1 [11] = molecular target: T3, Hs_FPR1; assay: as above; assay type: cell-based
Method: as §1, §2

Hs_FPR2 [12] = molecular target: T4, Hs_FPR2; assay: as above; assay type: cell-based
Method: as §1, §2

Mm_Fpr1 [13] = molecular target: T2, Mm_Fpr1; assay: Internalization of FLAG-tagged receptors by flow cytometry; assay type: cell-based; conditions: Mm_Fpr1, 30 min, relative to 1 μM WKYMVm
Method: Internalization of FPRs was measured by flow cytometry.[30] Briefly, cells were incubated with Alexa Fluor 657 conjugated M1 antiflag antibody (Sigma-Aldrich Cat# F3040, RRID:AB_439712) for 30 minutes at 37 °C to label surface receptors. Cells were then incubated with the indicated concentration of ligand before washing in PBS/0.04% EDTA to remove any remaining surface antibody. Remaining fluorescence was then measured using flow cytometry on either a BD FACScalibur or Attune, recording 5000 gated events. […] As a control, some samples were left untreated, and “strip only” was measured as a readout of constitutive endocytosis, and this value was subtracted from the data. Vehicle control (0.1% DMSO) had no effect on internalization of receptors.
as §2

FPR1 = conditions: at 100 nM; cited from earlier work
[14] = tested on: formyl peptide receptor family (Hs_FPR1, Hs_FPR2, Mm_Fpr1, Mm_Fpr2); assay: Summary of main findings: receptor subtype selectivity and ligand bias across all readouts; design: species or system human and mouse; conditions: summary grade of ligand bias relative to WKYMVm; key not given
Text: To determine ligand bias, a reference ligand is required, that is, “balanced” for the pathways tested.[37] […] We then used measurements of the activity ratio (Log (Emax/EC50)) for each receptor, ligand, and pathway in an attempt to observe any ligand bias (Fig. 6).

Emax (Mm_Fpr2 [1]): 87.9%
Emax (Mm_Fpr1 [2]): 37.5%
Emax (Hs_FPR1 [3]): 44.1%
Emax (Hs_FPR2 [4]): 79.2%
Emax at 1 µM (Mm_Fpr2 [5]): 128%
Emax at 1 µM (Mm_Fpr1 [6]): 118%
Emax at 1 µM (Hs_FPR1 [7]): 141%
Emax at 1 µM (Hs_FPR2 [8]): 125%
Emax (Mm_Fpr2 [9]): 94.3%
Emax (Mm_Fpr1 [10]): 83.1%
Emax (Hs_FPR1 [11]): 75%
Emax (Hs_FPR2 [12]): 94.8%
agonist-induced internalization (words) (Mm_Fpr1 [13]): full agonists
Bias [14]: No
SMILES: CSCC[C@H](NC(=O)[C@@H](NC(=O)[C@H](CCSC)NC(=O)[C@H](Cc1ccc(O)cc1)NC(=O)[C@H](CCCCN)NC(=O)[C@@H](N)Cc1c[nH]c2ccccc12)C(C)C)C(N)=O [WKYMVM]
arrestin recruitment to FPR1, Pathhunter (FPR1): neither WKYMVM nor ACT-389949 resulted in recruitment
